Measured values reported in the METLIN SMRT retention time set (Domingo-Almenara et al. 2019).

Test: gradient 5% acetonitrile 3 min, to 50% in 2 min, to 85% in 15 min, held 3 min, 100 µL/min
Conditions: column: Zorbax Extend-C18 2.1 x 50 mm; eluents: water / acetonitrile, 0.1% formic acid
Summary of the method: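 Data were gathered over 3 months by HPLC coupled to a quadrupole time-of-flight mass spectrometer, operated in positive and negative ionization mode. Mixtures of ~100 pure standards ran on a Zorbax Extend-C18 column (2.1 × 50 mm, 1.8 μm) at 100 μL/min, with water and acetonitrile each containing 0.1% formic acid and dead and dwell volumes of 40 μL and 900 μL. Retention time was read from adduct peaks picked by computer and checked manually.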

| Structure (SMILES) | RP-LC retention time [s] |
| --- | --- |
| COc1ccc(OC)c(NC(=O)Cn2c(=O)c(CCC(=O)NCC(C)C)nc3ccccc32)c1 | 798 |
| O=C(c1ccc(F)cc1Cl)N1CCC2(CC1)NC(=O)N(CCOc1ccccc1)C2=O | 764 |
| COc1ccc(-c2cn3ccn(-c4ccc(F)c(Cl)c4)c(=O)c3n2)cc1OC | 804 |
| CC1CCN(c2cc(-n3ccnc3)ncn2)CC1 | 651 |
| CC(=O)OCc1cc(=O)n(C)c2c3c4c(cc12)c(C)cc(=O)n4CO3 | 669 |
| Cn1c(=O)c2cc(C(=O)Nc3ccc4c(c3)OCCO4)cnc2n(-c2ccccc2)c1=O | 842 |
| Cc1cccc(NC(=O)Cn2nc(N3CCCC3)c3ccccc3c2=O)c1C | 927 |
| CC(C)c1c(C(=O)O)nnn1-c1ccc(F)c(F)c1 | 762 |
| CC(C)NC(=O)C1CCCN(c2nc3ncn(CC(=O)NCc4ccccc4)c(=O)c3s2)C1 (centres undefined) | 672 |
| COc1ccc(CNC(=O)C2CCN(C(=O)C3Sc4ccccc4NC3=O)CC2)cc1 (centres undefined) | 731 |
| Cc1cccc(C)c1NC(=O)N1CCC(OC2CCN(Cc3ccccc3)CC2)CC1 | 661 |
| CCC(C)c1ccc(NC(=O)c2nn(C)cc2Cl)cc1 (centres undefined) | 1100 |
| COc1ccccc1C(=O)Nc1cccn2ncnc12 | 803 |
| Cc1ccsc1CCNC(=O)C1CCN(C(=O)c2cc(-c3cccnc3)n[nH]2)CC1 | 625 |
| CC1CCC(NC(=O)c2nnc(-c3ccc(S(=O)(=O)N4CCC(C)CC4)cc3)o2)CC1 (centres undefined) | 1210 |
| Cc1nc(-c2ccc(NC(=O)N3CCN(c4ccccn4)CC3)cc2)no1 | 588 |
| Cc1nc(-c2csc(S(=O)(=O)N3CCCC(C(=O)Nc4ccccc4)C3)c2)no1 (centres undefined) | 927 |
| CCn1cc(S(=O)(=O)N2CCCC(n3c(C)cnc3-c3ccccc3)C2)cn1 (centres undefined) | 639 |
| O=C(c1ccc(C(F)(F)F)cc1)N1CCc2nc(-c3ccc(Cl)cc3)ncc2C1 | 1170 |
| CC(=O)N1CCc2sc(C(=O)N3CCN(c4ccccc4)CC3)cc2C1 | 732 |
| CCOc1ccccc1CN1CCn2c(nnc2[C@@H]2C[C@@H](O)CN2Cc2cccnc2)C1 | 581 |

| Structure (SMILES) | RP-LC retention time [s] |
| --- | --- |
| Cc1nc(N2CCOCC2)c2c(C(=O)N3CCN(c4cc(Cl)ccc4C)CC3)c(C)oc2n1 | 983 |
| Cn1ncc2c3ccccc3n(CC(=O)NCCc3cccs3)c2c1=O | 784 |
| CC(C)NC(=O)CSc1nnc(CNC(=O)c2ccc(S(=O)(=O)N(C)C)cc2)o1 | 625 |
| COc1ccc(-c2cc(N3CCCC(C(=O)Nc4nccs4)C3)ncn2)cc1 (centres undefined) | 582 |
| Cc1ccc(OCC(=O)Nc2nc(-c3ccccc3)cs2)c(Br)c1 | 1310 |
| COCC(=O)N1CCCCC1c1nncn1Cc1ccccc1 (centres undefined) | 612 |
| COc1ccc(CN2CCC(NC(=O)CCc3c(C)noc3C)C2)cn1 (centres undefined) | 571 |
| Cc1ccc(NC(=O)C2CCc3sc(C(=O)N4CCOCC4)cc3C2)cc1C (centres undefined) | 570 |
| CCNC(=O)c1cc2cc(Cl)ccc2[nH]1 | 806 |
| Cc1ccc(CNS(=O)(=O)c2cc(-c3cc(C(F)(F)F)on3)sc2C)cc1 | 1230 |
| COc1ccc(CNC(=O)C2CCCN2S(=O)(=O)c2cc3c(cc2Cl)NC(=O)CO3)cc1 (centres undefined) | 745 |
| CCn1nccc1C(=O)N1CCCN(C2=NS(=O)(=O)C(c3ccccc3)=C2C)CC1 | 714 |
| CCOc1ccc(C(=O)N2CCCN(c3cc(-c4ccc(Br)cc4)[nH]n3)CC2)cc1OCC | 853 |
| COC(=O)c1ccc2c(=O)n(-c3cc(F)cc(F)c3)c(N3CCCCC3)nc2c1 | 1180 |
| COc1ccc(N2CCN(c3nc(C(=O)NC4CC4)cs3)CC2)cc1 | 832 |
| COc1ccc(NC(=O)N2CCN(c3cc(-c4ccc(OC)c(OC)c4)ncn3)CC2)cc1OC | 620 |
| O=C(NCc1ccc(C(F)(F)F)cc1)c1cnc(-c2ccccc2)nc1-c1ccncc1 | 935 |
| COCCn1c(CC2CCN(C(=O)Nc3ccc(F)c(Cl)c3)C2)nc2cccnc21 (centres undefined) | 660 |
| CCCN(CC1CCOC1)C(=O)c1cc(F)cc(F)c1 (centres undefined) | 808 |
| O=C(COc1ccccc1)Nc1nc(-c2ccc(Cl)cc2)cs1 | 1130 |
| CCN(CC)c1nc2ccsc2c(=O)n1CCC(=O)NC1CCCC1 | 726 |

| Structure (SMILES) | RP-LC retention time [s] |
| --- | --- |
| CC(C)N1C(=O)C(C)N(C(=O)NCCN(C)C)c2cccnc21 (centres undefined) | 565 |
| CCOC(=O)COc1cc(-c2ccccc2)nc2ccc(NC(=O)Cc3cccs3)cc12 | 797 |
| CCOC(=O)c1cc(S(=O)(=O)N2CCCC2C(=O)Nc2cc(Cl)c(OC)cc2OC)cn1C (centres undefined) | 1010 |
| CCOC(=O)C1CCN(C(=O)CCc2cc3cc(OC)ccc3[nH]c2=O)CC1 | 701 |
| COCCOC1CCOC2(CCN(C(=O)c3cccs3)CC2)C1 (centres undefined) | 691 |
| CCc1ccc(S(=O)(=O)c2cnc(N3CCN(c4ccccc4F)CC3)nc2N)cc1 | 1200 |
| CCCCNC(=O)CN1CCN(C(=O)c2sc3ncccc3c2-n2cccc2)CC1 | 647 |
| CCc1noc(-c2ccc(-n3ncc(C(=O)N4CCN(C)CC4)c3C)nc2)n1 | 618 |
| O=C(Nc1nc2c(s1)CN(C(=O)Cn1c(=O)oc3ccccc31)CC2)C1CCCO1 (centres undefined) | 665 |
| CCOC(=O)C1CCN(C(=O)C2CN(C(=O)c3ccncc3)CC23CCCCC3)CC1 (centres undefined) | 703 |
| OC[C@@H]1CNC[C@H]1C1CCN(Cc2cccc(Cl)c2F)CC1 | 806 |
| CN1C(=O)COc2cc(-c3noc(C(=O)NCCCN4CCCC4)n3)ccc21 | 604 |
| c1ccc(-c2nnc(-c3nc(NCCCN4CCC(N5CCCCC5)CC4)c4ccccc4n3)o2)cc1 | 550 |
| O=C(c1cc(-c2ccncc2)n[nH]1)N1CCCC(C(=O)N2CCN(C(=O)c3ccco3)CC2)C1 (centres undefined) | 556 |
| Cc1cccc(OCC(=O)N2CC(CN(C)C)C3(CCOCC3)C2)c1 (centres undefined) | 598 |
| Cc1[nH]c(C(=O)N2CCCC(C(=O)NCCCN3CCCCCC3)C2)c(C)c1C(=O)OC(C)C (centres undefined) | 650 |
| CCCN(CC1CCOC1)C(=O)Nc1ccccc1 (centres undefined) | 575 |
| O=C(c1ccsc1)N1CCn2c(nnc2-c2ccccc2)C1 | 611 |
| CCn1c(=O)c2ccn(CC(=O)NCc3ccc(C)cc3)c2n(CC)c1=O | 706 |

More lines, now with the values ahead:

| RP-LC retention time [s] | Structure (SMILES) |
| --- | --- |
| 1100 | CCOc1ccc(-c2csc3c(=O)n(Cc4ccc(F)cc4)cnc23)cc1OCC |
| 647 | Cc1ccc(CNC(=O)Cn2c(N3CCOCC3)nc(C)cc2=O)cc1 |
| 775 | Cc1c(C(=O)O)nnn1-c1ccc2noc(-c3ccccc3)c2c1 |
| 760 | Cc1ccc(Cn2c(=O)n(CCNC(=O)c3ccoc3)c3ncccc32)cc1 |
| 818 | O=C(NCc1ccc(F)c(Cl)c1)C1CCCN(c2ncnc3c2oc2ccccc23)C1 (centres undefined) |
| 888 | CCCN1C(=O)CCc2cc(NC(=O)COc3ccc(F)cc3)ccc21 |
| 922 | CC(=O)NCc1ccc(-c2noc(-c3cccc(Br)c3)n2)s1 |
| 748 | CCN1C(=O)COc2ccc(-c3csc(NC(=O)c4ccncc4)n3)cc21 |
| 892 | Cc1cccc(C)c1NC(=O)Cn1nc(N2CCSCC2)c2ccccc2c1=O |
| 624 | CC(C)n1cnc2cc(CNC(=O)c3ccc4c(c3)OCO4)ccc21 |
| 806 | O=C(O)c1cn(Cc2ccc(F)cc2)c(=O)c2ccccc12 |
| 565 | Cc1nc2ccc(NC(=O)c3ccc(Cn4ccnc4)cc3)cc2s1 |
| 715 | Cc1cc(C)n2nc(CN(C(=O)c3ccco3)c3ccc(F)cc3)nc2n1 |
| 824 | O=C(Nc1ccc(F)c(C(F)(F)F)c1)C1COCC(=O)N1Cc1ccccc1 (centres undefined) |
| 1050 | Cc1cc(C)c(NC(=O)Cn2cnc3c(sc4nc(-c5ccccc5)ccc43)c2=O)c(C)c1 |
| 945 | COc1ccc(NC(=O)N2CC(C)Oc3ccc(C)cc32)cc1 (centres undefined) |
| 1180 | CCN(C(=O)c1ccco1)c1nc(-c2ccccc2)cs1 |
| 1150 | Cc1ccc(Sc2nccnc2N2CCC(C(=O)NCc3ccccc3C)CC2)cc1 |
| 985 | Cc1cc(C(=O)Nc2nc3c(C)cc(Cl)cc3s2)on1 |
| 1030 | Cc1cccc(-c2cc3n(n2)CCCN(C(=O)Cc2cccc(C(F)(F)F)c2)C3)c1 |
| 800 | O=C(Cc1cccc(F)c1)Nc1cc(-c2ccccn2)no1 |
| 824 | Cc1ccc(CNC(=O)C2CCCN2S(=O)(=O)c2cc3c(cc2C)NC(=O)C(C)O3)cc1 (centres undefined) |
| 917 | Cc1cccc(NC(=O)CSc2nccc(N3CCN(c4cc(C)ccc4C)CC3)n2)c1 |
| 694 | Oc1ccc(-c2ccc(F)cc2)cc1CN1CCCCCC1 |
| 917 | CCN1C(=O)c2ccccc2Oc2ccc(C(=O)NCc3ccccc3OC)cc21 |
| 984 | Cc1ccc(C(C)NC(=O)c2nnc(-c3ccc(S(=O)(=O)N(C)C)cc3)o2)c(C)c1 (centres undefined) |
| 696 | O=C(Nc1cccn2c(C3CCC3)nnc12)c1ccco1 |
| 639 | COc1ccc(Nc2c(C(=O)N3CCCCC3C)cnc3nc(C)ccc23)cc1 (centres undefined) |
